From publication PMC9086926 (RSC Advances, 2018)

Assays:
[1] = Absorptive permeability across 7 day fast model; conditions: human, Caco-2
[2] = Absorptive permeability across traditional 21 day Caco-2 cell model; conditions: human
[3] = cited from earlier work

SMILES	Papp A→B at 25 μM [1] [×10⁻⁶ cm/s]	Papp A→B at 25 μM [2] [×10⁻⁶ cm/s]	FA (human absorption fraction) [3] [%]
CC(C)NCC(O)COc1cccc2ccccc12 (stereo not shown) [Propranolol]	9.37 ± 0.03	10.6 ± 1.66	–
COCCc1ccc(OCC(O)CNC(C)C)cc1 (stereo not shown) [Metoprolol]	11.8 ± 0.25	12.1 ± 0.39	–
O=C(N[C@H](CO)[C@H](O)c1ccc([N+](=O)[O-])cc1)C(Cl)Cl [Chloramphenicol]	7.12 ± 0.04	8.17 ± 0.06	–
CC(C)(C)NCC(O)c1cc(O)cc(O)c1 (stereo not shown) [Terbutaline]	16.6 ± 0.7	15.6 ± 1.28	73
COC(=O)[C@H]1[C@H]2C[C@@H]3c4[nH]c5cc(OC)ccc5c4CCN3C[C@H]2C[C@@H](OC(=O)c2cc(OC)c(OC)c(OC)c2)[C@@H]1OC [Reserpine]	3.6 ± 0.43	3.5 ± 0.69	50
CC(NC(C)(C)C)C(=O)c1cccc(Cl)c1 (stereo not shown) [Bupropion]	12.9 ± 0.48	16.6 ± 0.99	–
CCc1cc(C(N)=S)ccn1 [Ethionamide]	20.4 ± 5.5	23.8 ± 0.94	80
CC(=O)N1CCN(c2ccc(OCC3COC(Cn4ccnc4)(c4ccc(Cl)cc4Cl)O3)cc2)CC1 (stereo not shown) [Ketoconazole]	8.33 ± 0.93	9.61 ± 0.01	76
Nc1ccc(S(=O)(=O)Nc2ncccn2)cc1 [Sulfadiazine]	–	9.76 ± 1.05	65
CC(C(=O)O)c1cccc(C(=O)c2ccccc2)c1 (stereo not shown) [Ketoprofen]	15 ± 1.97	19.2 ± 1.93	–
CCOC(=O)C1=C(C)NC(C)=C(C(=O)OC)C1c1cccc(Cl)c1Cl (stereo not shown) [Felodipine]	–	4.34 ± 0.63	–
NC(=O)N1c2ccccc2C=Cc2ccccc21 [Carbamazepine]	19.5 ± 0.87	20.9 ± 1.93	100
COc1ccc2[nH]c([S+]([O-])Cc3ncc(C)c(OC)c3C)nc2c1 (stereo not shown) [Omeprazole]	11.4 ± 0.47	12.6 ± 2.01	80
Nc1nnc(-c2cccc(Cl)c2Cl)c(N)n1 [Lamotrigine]	–	–	98
CC(=O)CC(c1ccccc1)c1c(O)c2ccccc2oc1=O (stereo not shown) [Warfarin sodium]	14.44 ± 0.11	15.31 ± 0.002	–
